Measurements published in paper PMC8699473, “An Easily Expandable Multi-Drug LC-MS Assay for the Simultaneous Quantification of 57 Oral Antitumor Drugs in Human Plasma” (Cancers, 2021).

Experiment: Long-term stability in spiked pooled human plasma

Structure (SMILES)	Long-term stability, 1 month, -20°C Accuracy [%] (validation standard 2xLLOV)	Long-term stability, 1 month, -80°C Accuracy [%] (validation standard 2xLLOV)	Long-term stability, 2 month, -20°C Accuracy [%] (validation standard 2xLLOV)	Long-term stability, 2 month, -80°C Accuracy [%] (validation standard 2xLLOV)	Long-term stability, 3 month, -20°C Accuracy [%] (validation standard 2xLLOV)	Long-term stability, 3 month, -80°C Accuracy [%] (validation standard 2xLLOV)	Long-term stability, 6 weeks, 4°C, without daylight Accuracy [%] (validation standard 2xLLOV)	Long-term stability, 1 month, -20°C Accuracy [%] (validation standard LLOV)	Long-term stability, 1 month, -80°C Accuracy [%] (validation standard LLOV)	Long-term stability, 2 month, -20°C Accuracy [%] (validation standard LLOV)	Long-term stability, 2 month, -80°C Accuracy [%] (validation standard LLOV)	Long-term stability, 3 month, -20°C Accuracy [%] (validation standard LLOV)	Long-term stability, 3 month, -80°C Accuracy [%] (validation standard LLOV)	Long-term stability, 6 weeks, 4°C, without daylight Accuracy [%] (validation standard LLOV)	Long-term stability, 1 month, -20°C Accuracy [%] (validation standard MOV)	Long-term stability, 1 month, -80°C Accuracy [%] (validation standard MOV)	Long-term stability, 2 month, -20°C Accuracy [%] (validation standard MOV)	Long-term stability, 2 month, -80°C Accuracy [%] (validation standard MOV)	Long-term stability, 3 month, -20°C Accuracy [%] (validation standard MOV)	Long-term stability, 3 month, -80°C Accuracy [%] (validation standard MOV)	further results
Cc1cn(-c2cc(NC(=O)c3ccc(C)c(Nc4nccc(-c5cccnc5)n4)c3)cc(C(F)(F)F)c2)cn1 [Nilotinib]	95.1	89.2	96.9	99.7	91.6	92.2	103.4	91.9	89.8	93.3	97.4	90.5	93.1	102.0	95.6	91.9	99.1	98.0	96.9	93.1	Long-term stability, 6 weeks, 4°C, without daylight Accuracy [%] (validation standard MOV): 101.7%; Long-term stability, 1 month, -20°C Accuracy [%] (validation standard ULOV): 94.2%; Long-term stability, 1 month, -80°C Accuracy [%] (validation standard ULOV): 90.9%; Long-term stability, 2 month, -20°C Accuracy [%] (validation standard ULOV): 97.5%; Long-term stability, 2 month, -80°C Accuracy [%] (validation standard ULOV): 97.0%; Long-term stability, 3 month, -20°C Accuracy [%] (validation standard ULOV): 93.1%; Long-term stability, 3 month, -80°C Accuracy [%] (validation standard ULOV): 91.6%; Long-term stability, 6 weeks, 4°C, without daylight Accuracy [%] (validation standard ULOV): 98.0%
COC(=O)c1ccc2c(c1)NC(=O)/C2=C(\Nc1ccc(N(C)C(=O)CN2CCN(C)CC2)cc1)c1ccccc1 [Nintedanib]	97.2	98.9	103.8	99.7	90.3	91.1	94.4	102.0	102.1	96.9	94.3	88.2	88.3	86.6	95.5	91.4	98.9	99.7	97.2	94.7	Long-term stability, 6 weeks, 4°C, without daylight Accuracy [%] (validation standard MOV): 94.4%; Long-term stability, 1 month, -20°C Accuracy [%] (validation standard ULOV): 94.5%; Long-term stability, 1 month, -80°C Accuracy [%] (validation standard ULOV): 87.4%; Long-term stability, 2 month, -20°C Accuracy [%] (validation standard ULOV): 97.0%; Long-term stability, 2 month, -80°C Accuracy [%] (validation standard ULOV): 94.8%; Long-term stability, 3 month, -20°C Accuracy [%] (validation standard ULOV): 92.9%; Long-term stability, 3 month, -80°C Accuracy [%] (validation standard ULOV): 91.8%; Long-term stability, 6 weeks, 4°C, without daylight Accuracy [%] (validation standard ULOV): 85.9%
NC(=O)c1cccc2cn(-c3ccc([C@@H]4CCCNC4)cc3)nc12 [Niraparib]	101.4	94.5	104.1	106.0	99.8	95.7	96.1	97.8	93.4	101.8	102.4	96.1	95.4	94.3	99.8	99.6	105.3	103.9	102.2	100.4	Long-term stability, 6 weeks, 4°C, without daylight Accuracy [%] (validation standard MOV): 104.5%; Long-term stability, 1 month, -20°C Accuracy [%] (validation standard ULOV): 100.8%; Long-term stability, 1 month, -80°C Accuracy [%] (validation standard ULOV): 98.5%; Long-term stability, 2 month, -20°C Accuracy [%] (validation standard ULOV): 103.3%; Long-term stability, 2 month, -80°C Accuracy [%] (validation standard ULOV): 104.1%; Long-term stability, 3 month, -20°C Accuracy [%] (validation standard ULOV): 100.4%; Long-term stability, 3 month, -80°C Accuracy [%] (validation standard ULOV): 101.8%; Long-term stability, 6 weeks, 4°C, without daylight Accuracy [%] (validation standard ULOV): 96.4%
